Reference: ChEMBL document CHEMBL4350981, “Salinomycin and its derivatives - A new class of multiple-targeted "magic bullets"” (Eur J Med Chem, 2019)
≈ marks a conversion by molar mass, not a printed value.

How the values were obtained:
Staphylococcus aureus [1] = assay: Antibacterial activity against methicillin-resistant Staphylococcus aureus; assay type: functional
Staphylococcus aureus [2] = assay: Antibacterial activity against methicillin-sensitive Staphylococcus aureus; assay type: functional
Trypanosoma brucei = assay: Trypanocidal activity against bloodstream forms of Trypanosoma brucei […] incubated for 24 hrs followed by compound wash out after 72 hrs; assay type: functional
[3] = system: Staphylococcus epidermidis; assay: Antibacterial activity against methicillin-resistant Staphylococcus epidermidis; assay type: functional
Bacillus anthracis = assay: Antibacterial activity against Bacillus anthracis; assay type: functional
Bacillus subtilis = assay: Antibacterial activity against Bacillus subtilis; assay type: functional
Mycolicibacterium phlei [4] = assay: Antibacterial activity against Mycobacterium phlei; assay type: functional
Micrococcus luteus = assay: Antibacterial activity against Sarcina lutea; assay type: functional
Staphylococcus aureus [5] = assay: Antibacterial activity against Staphylococcus aureus; assay type: functional
Staphylococcus aureus [6] = assay: Antibacterial activity against Staphylococcus aureus FDA 209P by agar diffusion method; assay type: functional
[7] = system: Human immunodeficiency virus 1; assay: Antiviral activity against HIV1; assay type: functional, organism-based
Mycolicibacterium phlei [8] = assay: Antimycobacterial activity against Mycobacterium phlei IPCR by agar diffusion method; assay type: functional
Alternaria kikuchiana [9] = assay: Antimicrobial activity against Alternaria kikuchiana NIAS by agar diffusion method; assay type: functional
[10] = system: Mycobacteroides abscessus; assay: Antimycobacterial activity against Mycobacterium abscessus ATCC 19977; assay type: functional
Alternaria kikuchiana [11] = assay: Antimicrobial activity against Alternaria kikuchiana A-14 by agar diffusion method; assay type: functional
[12] = system: Human immunodeficiency virus 1; assay: Antiviral activity against HIV1 infected in U937 cells; assay type: functional, organism-based; settings: Human immunodeficiency virus 1, U-937
Mycobacterium avium = assay: Antimycobacterial activity against Mycobacterium avium IFO 315 by agar diffusion method; assay type: functional
Pyricularia oryzae = assay: […] activity against Pyricularia oryzae by agar diffusion method; assay type: functional
Xanthomonas oryzae = assay: […] activity against Xanthomonas oryzae by agar diffusion method; assay type: functional
Influenza A virus H3N2 = assay: Antiviral activity against Influenza A virus (A/Hong Kong/7/1987(H3N2)) infected in MDCK cells after 3 days by MTT assay; assay type: functional, organism-based; settings: 72 h

| SMILES | MIC (Staphylococcus aureus [1]) [µg/mL] | MIC [3] [µg/mL] | MIC (Bacillus subtilis) [µg/mL] | MIC (Mycolicibacterium phlei [4]) [µg/mL] | MIC (Micrococcus luteus) [µg/mL] | MIC (Staphylococcus aureus [5]) [µg/mL] | also measured |
| --- | --- | --- | --- | --- | --- | --- | --- |
| CC[C@@H](C(=O)[C@@H](C)[C@@H](O)[C@H](C)[C@@H]1O[C@@H]([C@@H](CC)C(=O)Nc2ccccc2)CC[C@@H]1C)[C@H]1O[C@]2(C=C[C@@H](O)[C@]3(CC[C@@](C)([C@H]4CC[C@](O)(CC)[C@H](C)O4)O3)O2)[C@H](C)C[C@@H]1C | 4 (≈ 4.84 µM) | – | – | – | – | – | MIC (Staphylococcus aureus [2]): 2 µg/mL (≈ 2.42 µM) |
| CCCCNC(=O)[C@H](CC)[C@H]1CC[C@H](C)[C@H]([C@@H](C)[C@H](O)[C@H](C)C(=O)[C@H](CC)[C@H]2O[C@]3(C=C[C@@H](O)[C@]4(CC[C@@](C)([C@H]5CC[C@](O)(CC)[C@H](C)O5)O4)O3)[C@H](C)C[C@@H]2C)O1 | – | – | – | – | – | – | GI50 (Trypanosoma brucei): 40 nM |
| CC[C@@H](C(=O)[C@@H](C)[C@@H](O)[C@H](C)[C@@H]1O[C@@H]([C@@H](CC)C(=O)On2nnc3ccccc32)CC[C@@H]1C)[C@H]1O[C@]2(C=C[C@@H](O)[C@]3(CC[C@@](C)([C@H]4CC[C@](O)(CC)[C@H](C)O4)O3)O2)[C@H](C)C[C@@H]1C | – | – | – | – | – | – | MIC (Staphylococcus aureus [2]): 1 to 2 µg/mL (≈ 1.15 to 2.3 µM) |
| CC[C@@H](C(=O)[C@@H](C)[C@@H](O)[C@H](C)[C@@H]1O[C@@H]([C@@H](CC)C(=O)N(CC)CC)CC[C@@H]1C)[C@H]1O[C@]2(C=C[C@@H](O)[C@]3(CC[C@@](C)([C@H]4CC[C@](O)(CC)[C@H](C)O4)O3)O2)[C@H](C)C[C@@H]1C | – | 4 to 8 (≈ 4.96 to 9.92 µM) | – | – | – | – | MIC (Bacillus anthracis): 1 µg/mL (≈ 1.24 µM) |
| CCCN(CCC)C(=O)[C@H](CC)[C@H]1CC[C@H](C)[C@H]([C@@H](C)[C@H](O)[C@H](C)C(=O)[C@H](CC)[C@H]2O[C@]3(C=C[C@@H](O)[C@]4(CC[C@@](C)([C@H]5CC[C@](O)(CC)[C@H](C)O5)O4)O3)[C@H](C)C[C@@H]2C)O1 | – | 4 to 8 (≈ 4.8 to 9.59 µM) | – | – | – | – | MIC (Bacillus anthracis): 4 µg/mL (≈ 4.8 µM) |
| CC[C@@H](C(=O)[C@@H](C)[C@@H](O)[C@H](C)[C@@H]1O[C@@H]([C@@H](CC)C(=O)OC[C@H]2O[C@@H](n3cc(F)c(=O)[nH]c3=O)C[C@@H]2O)CC[C@@H]1C)[C@H]1O[C@]2(C=C[C@@H](O)[C@]3(CC[C@@](C)([C@H]4CC[C@](O)(CC)[C@H](C)O4)O3)O2)[C@H](C)C[C@@H]1C | 8.17 to 32.7 (≈ 8.34 to 33.4 µM) | 8.17 to 32.7 (≈ 8.34 to 33.4 µM) | – | – | – | – | – |
| CC[C@@H](C(=O)[C@@H](C)[C@@H](O)[C@H](C)[C@@H]1O[C@@H]([C@@H](CC)C(=O)OCC(F)(F)F)CC[C@@H]1C)[C@H]1O[C@]2(C=C[C@@H](O)[C@]3(CC[C@@](C)([C@H]4CC[C@](O)(CC)[C@H](C)O4)O3)O2)[C@H](C)C[C@@H]1C | 0.5 to 1 (≈ 0.6 to 1.2 µM) | 2 to 4 (≈ 2.4 to 4.8 µM) | – | – | – | – | GI50 (Trypanosoma brucei): 57 nM |
| CCCCC(=O)O[C@@H]1C=C[C@]2(O[C@H]([C@@H](CC)C(=O)[C@@H](C)[C@@H](O)[C@H](C)[C@@H]3O[C@@H]([C@@H](CC)C(=O)O)CC[C@@H]3C)[C@@H](C)C[C@H]2C)O[C@@]12CC[C@@](C)([C@H]1CC[C@](O)(CC)[C@H](C)O1)O2 | – | – | 1.56 (≈ 1.87 µM) | 3.12 (≈ 3.74 µM) | 1.56 (≈ 1.87 µM) | 0.78 (≈ 0.934 µM) | – |
| CC[C@@H](C(=O)[C@@H](C)[C@@H](O)[C@H](C)[C@@H]1O[C@@H]([C@@H](CC)C(=O)O)CC[C@@H]1C)[C@H]1O[C@]2(C=C[C@@H](OC(C)=O)[C@]3(CC[C@@](C)([C@H]4CC[C@](O)(CC)[C@H](C)O4)O3)O2)[C@H](C)C[C@@H]1C | – | – | 1.56 (≈ 1.97 µM) | 6.25 (≈ 7.88 µM) | 1.56 (≈ 1.97 µM) | 0.78 (≈ 0.984 µM) | – |
| CCC(=O)O[C@@H]1C=C[C@]2(O[C@H]([C@@H](CC)C(=O)[C@@H](C)[C@@H](O)[C@H](C)[C@@H]3O[C@@H]([C@@H](CC)C(=O)O)CC[C@@H]3C)[C@@H](C)C[C@H]2C)O[C@@]12CC[C@@](C)([C@H]1CC[C@](O)(CC)[C@H](C)O1)O2 | – | – | 0.78 (≈ 0.966 µM) | 1.56 (≈ 1.93 µM) | 0.78 (≈ 0.966 µM) | 0.78 (≈ 0.966 µM) | – |
| CCCC(=O)O[C@@H]1C=C[C@]2(O[C@H]([C@@H](CC)C(=O)[C@@H](C)[C@@H](O)[C@H](C)[C@@H]3O[C@@H]([C@@H](CC)C(=O)O)CC[C@@H]3C)[C@@H](C)C[C@H]2C)O[C@@]12CC[C@@](C)([C@H]1CC[C@](O)(CC)[C@H](C)O1)O2 | – | – | 0.78 (≈ 0.95 µM) | 1.56 (≈ 1.9 µM) | 0.78 (≈ 0.95 µM) | 0.78 (≈ 0.95 µM) | – |
| CC[C@@H](C(=O)[C@@H](C)[C@@H](O)[C@H](C)[C@@H]1O[C@@H]([C@@H](CC)C(=O)O)CC[C@@H]1C)[C@H]1O[C@]2(C=C[C@@H](OC=O)[C@]3(CC[C@@](C)([C@H]4CC[C@](O)(CC)[C@H](C)O4)O3)O2)[C@H](C)C[C@@H]1C | – | – | 3.12 (≈ 4.01 µM) | 12.5 (≈ 16 µM) | 3.12 (≈ 4.01 µM) | 1.56 (≈ 2 µM) | – |
| CC[C@@H](C(=O)[C@@H](C)[C@@H](O)[C@H](C)[C@@H]1O[C@@H]([C@@H](CC)C(=O)OCc2cc([N+](=O)[O-])cc([N+](=O)[O-])c2)CC[C@@H]1C)[C@H]1O[C@]2(C=C[C@@H](O)[C@]3(CC[C@@](C)([C@H]4CC[C@](O)(CC)[C@H](C)O4)O3)O2)[C@H](C)C[C@@H]1C | 8 to 16 (≈ 8.59 to 17.2 µM) | 4 to 8 (≈ 4.3 to 8.59 µM) | – | – | – | – | – |
| CC[C@@H](C(=O)[C@@H](C)[C@@H](O)[C@H](C)[C@@H]1O[C@@H]([C@@H](CC)C(=O)NCc2ccc(F)cc2)CC[C@@H]1C)[C@H]1O[C@]2(C=C[C@@H](O)[C@]3(CC[C@@](C)([C@H]4CC[C@](O)(CC)[C@H](C)O4)O3)O2)[C@H](C)C[C@@H]1C | 16 to 64 (≈ 18.6 to 74.6 µM) | 16 to 128 (≈ 18.6 to 149 µM) | – | – | – | – | – |
| O=C(N[C@H](CO)[C@H](O)c1ccc([N+](=O)[O-])cc1)C(Cl)Cl [CHLORAMPHENICOL] | – | – | – | – | – | – | MIC (Staphylococcus aureus [6]): 3.12 µg/mL (≈ 9.66 µM) |
| CC[C@H]1OC(=O)[C@H](C)[C@@H](O[C@H]2C[C@@](C)(OC)[C@@H](O)[C@H](C)O2)[C@H](C)[C@@H](O[C@@H]2O[C@H](C)C[C@H](N(C)C)[C@H]2O)[C@](C)(O)C[C@@H](C)C(=O)[C@H](C)[C@@H](O)[C@]1(C)O [ERYTHROMYCIN] | – | – | – | – | – | – | MIC (Staphylococcus aureus [6]): 3.12 µg/mL (≈ 4.25 µM) |
| CC[C@@H](C(=O)[C@@H](C)[C@@H](O)[C@H](C)[C@@H]1O[C@@H]([C@@H](CC)C(=O)O)CC[C@@H]1C)[C@H]1O[C@]2(C=C[C@@H](O)[C@]3(CC[C@@](C)([C@H]4CC[C@](O)(CC)[C@H](C)O4)O3)O2)[C@H](C)C[C@@H]1C [SALINOMYCIN] | 1 to 16 (≈ 1.33 to 21.3 µM) | 1 to 16 (≈ 1.33 to 21.3 µM) | 3.12 (≈ 4.15 µM) | 12.5 (≈ 16.6 µM) | 3.12 (≈ 4.15 µM) | 1.56 (≈ 2.08 µM) | EC50 [7]: 0.4 µg/mL (≈ 0.533 µM); MIC (Mycolicibacterium phlei [8]): 12.5 µg/mL (≈ 16.6 µM); GI50 (Trypanosoma brucei): 180 nM; MIC (Alternaria kikuchiana [9]): 50 µg/mL (≈ 66.6 µM); MIC [10]: > 20 µg/mL; MIC (Alternaria kikuchiana [11]): 50 µg/mL (≈ 66.6 µM); EC50 [12]: 0.09 µg/mL (≈ 0.12 µM); MIC (Bacillus anthracis): 1 µg/mL (≈ 1.33 µM); MIC (Mycobacterium avium): 12.5 µg/mL (≈ 16.6 µM); MIC (Pyricularia oryzae): 25 µg/mL (≈ 33.3 µM); MIC (Staphylococcus aureus [2]): 1 to 2 µg/mL (≈ 1.33 to 2.66 µM); MIC (Xanthomonas oryzae): 50 µg/mL (≈ 66.6 µM); EC50 (Influenza A virus H3N2): 400 to 4300 nM |
| CN[C@@H]1[C@H](O[C@H]2[C@H](O[C@H]3[C@H](O)[C@@H](O)[C@H](N=C(N)N)[C@@H](O)[C@@H]3N=C(N)N)O[C@@H](C)[C@]2(O)C=O)O[C@@H](CO)[C@H](O)[C@H]1O [STREPTOMYCIN] | – | – | – | – | – | – | MIC (Staphylococcus aureus [6]): 3.12 µg/mL (≈ 5.36 µM) |
| CN(C)[C@@H]1C(O)=C(C(N)=O)C(=O)[C@@]2(O)C(O)=C3C(=O)c4c(O)cccc4[C@@](C)(O)[C@H]3C[C@@H]12 [TETRACYCLINE] | – | – | – | – | – | – | MIC (Staphylococcus aureus [6]): 3.12 µg/mL (≈ 7.02 µM) |
